{"source": "patent US11576892B2", "about": "“Benzopyran derivatives and uses thereof” (Novation Pharmaceuticals Inc., priority 2015, dated 2023)", "key": {"IFNγ release from PBMCs": {"test_system": "IFNγ release from PBMCs", "assay": "IFNγ release from PBMCs measured by ELISA", "type": "cell-based", "settings": "5 μM, human PBMCs", "method": "(§1) Mononuclear cells are obtained from the blood of healthy volunteers via centrifugation and cultivated on tissue culture dishes with the test compound at various concentrations Schnyder, Bollinger et al. (1990). Inhibition of interleukin-1 release by IX 207-887. Agents Actions. 30: 350-362. Fresh human mononuclear cells were isolated on Ficoll-Paque gradient and washed several times. Fresh medium, test compound and LPS (10 μg/ml) or PHA (5 μg/ml) as stimulant are added and the monocytes incubated for a further day. The media are then removed and clarified by centrifugation at 1000×g for 10 min. Samples are stored at […] until the determinations can be made. IFNγ, IL 1β, IL 6, and IL-17 are determined using commercially available ELISA kits."}, "IL-17 release from PBMCs": {"test_system": "IL-17 release from PBMCs", "assay": "IL-17 release from PBMCs measured by ELISA", "type": "cell-based", "settings": "human PBMCs", "method": "as §1"}, "[1]": {"test_system": "IL-6 release from THP 1 cells", "assay": "IL-6 release from THP 1 cells measured by ELISA", "type": "cell-based, human", "settings": "IFNγ/LPS-stimulated THP 1 cells, 24 h", "method": "(§2) The THP 1 cell line is generally available and is described by Tsuchia et. al. Tsuchiya, Yamabe et al. (1980). Establishment and characterization of a human acute monocytic leukemia cell line (THP-1). Int J Cancer. 26: 171-176.\n(§3) 900 μl THP 1 cells (0.5×10^6 cells) together with 100 Uγ interferon/0.9 ml RPMI 1640 medium (containing 2 mM L glutamine and 5% heat inactivated fetal calf serum) are pipetted into 24-well culture plates. 100 μl of the compound to be tested are then added. After 3 hours at 37° C. in 5% CO2/95% air, 10 μl lipopolysaccharide (LPS) 500 μg/ml is added and the incubation continued for a further 24 hours. Appropriate controls (with and without stimulus, solvent) are also included. The media are then removed and clarified by centrifugation at 1000 g for 10 min. Samples are stored at […] until the determinations can be made. IL 1β, IL 6 IL-12, and IL-23 assays are determined using commercially available ELISA kits. In these tests, the compounds of the disclosure may inhibit IL-1β, IL-6, IL-12 and IL-23 release at a concentration of about 10 to 50 μM. The compounds are non-toxic based on resazurin measurements as described in Didiot, Hewett et al. (2013). Identification of cardiac glycoside molecules as inhibitors of c-Myc IRES-mediated translation. J Biomol Screen. 18: 407-419."}, "[2]": {"test_system": "IL-1β release from THP 1 cells", "assay": "IL-1β release from THP 1 cells measured by ELISA", "type": "cell-based, human", "settings": "IFNγ/LPS-stimulated THP 1 cells", "method": "as §2, §3"}, "[3]": {"test_system": "IL-23 release from THP 1 cells", "assay": "IL-23 release from THP 1 cells measured by ELISA", "type": "cell-based, human", "settings": "IFNγ/LPS-stimulated THP 1 cells", "method": "as §2, §3"}, "IL-6 release from PBMCs": {"test_system": "IL-6 release from PBMCs", "assay": "IL-6 release from PBMCs measured by ELISA", "type": "cell-based", "settings": "LPS or PHA stimulated human PBMCs", "method": "as §1"}, "IL-1β release from PBMCs": {"test_system": "IL-1β release from PBMCs", "assay": "IL-1β release from PBMCs measured by ELISA", "type": "cell-based", "settings": "LPS or PHA stimulated human PBMCs", "method": "as §1"}, "IL-6 mRNA [4]": {"test_system": "IL-6 mRNA", "assay": "mRNA stability reporter gene (luciferase) assay, IL-6", "type": "cell-based", "settings": "luciferase reporter, 24 h", "method": "(§4) The basic principle of a reporter gene assay for determining compounds that destabilize mRNA is described in detail in WO 00/39314. A number of these assays for various drug targets have been developed and were tested with the compounds described in this disclosure. For THP-1 cells, compound is added at the time of the addition of LPS and luciferase measurements are taken 24 hours later or as indicated. For other cell lines, cells were plated in 96 well plates at 5*10^5 cells per 100 ul per well and incubated over night at 37° C. Compounds were then added and luciferase activity was measured after 24 hours. The activity was compared to other mRNA stability assays established for a range of other drug targets and found to be specific for IL-6, IL-12p40 and IL-23p19. Luciferase activity in the IL-6, IL-12 and IL-23 assays was inhibited by 10 μM benzopyran derivatives by >40% (Table IV)."}, "IL-12 p40 mRNA": {"test_system": "IL-12 p40 mRNA", "assay": "mRNA stability reporter gene (luciferase) assay, IL-12 p40", "type": "cell-based", "settings": "10 μM, 24 h, n.a. = no activity", "method": "as §4"}, "IL-23 p19 mRNA": {"test_system": "IL-23 p19 mRNA", "assay": "mRNA stability reporter gene (luciferase) assay, IL-23 p19", "type": "cell-based", "settings": "10 μM, 24 h, n.a. = no activity", "method": "as §4"}, "IL-6 mRNA [5]": {"test_system": "IL-6 mRNA", "assay": "IL-6 mRNA levels in IFN-γ/LPS-stimulated THP-1 cells (RT-PCR)", "type": "cell-based, human", "settings": "γIFN/LPS, 24h, compounds 10 μM, RT-PCR vs β-actin", "method": "Total RNA was isolated at t=24 h from IFN-γ/LPS-stimulated THP-1 cells exposed to compounds (10 μM) or DMSO (solvent control) for 24 […], using the RNeasy Midi Kit (Qiagen), according to the manufacturer's instructions, and eluted in DEPC-treated Milli-Q H2O. Quantity and purity of RNA were determined by absorbance at 260 and 280 nm.\nFor RT-PCR analysis, 1 μg of total RNA was reverse transcribed using AMV reverse transcriptase (Life Sciences Inc., St. Petersburg, Fla.), then amplified by the PCR method. Each PCR reaction also contained a set of β-actin primers as internal control. The levels of the expected PCR product were compared to the constant levels of β-actin. The size of the PCR products was compared to MspI digested pBR322 standards (New England Biolabs). PCR products were analyzed on a 4% agarose gel.\nNucleotide sequences for the oligonucleotide 5′ and 3′ primers, respectively, were: […]"}, "IFN-gamma": {"test_system": "IFN-gamma", "assay": "LPS-induced cytokine release in mice, serum IFN-gamma", "type": "in vivo", "settings": "100 mg/kg pre-treatment; serum 4 h post LPS; CD-1 mouse", "method": "(§5) Compounds were evaluated on intra-peritoneal LPS-induced cytokine release measured in serum in the CD-1 mouse. Vehicle, Test item and positive control were administered 1 h before LPS injection as well 30 min post LPS injection (except as otherwise varied herein). In serum samples collected at 4 h post LPS injection, following cytokines were measured by multiplex on MSD 10 V-plex platform: TNF-alpha, IFN-gamma, IL-1beta, IL-2, IL-4, IL-5, IL-6, IL-10, IL-12, KC/GRO. All cytokines except IL-5 were induced by LPS injection (compared with saline injection).\n(§6) Serum samples collected at 4h post LPS challenge were analyzed in duplicate wells using multiplex on MSD 10 V-plex platform. […] FIG. 1: Effect of test compounds 333 (TI1) and 1781 (TI2) on IFN-gamma levels in serum of LPS treated mice. FIG. 2: Effect of test compounds 333 (TI1) and 1781 (TI2) on IFN-gamma levels in serum of LPS treated mice (values of individual animals)"}, "IL-12": {"test_system": "IL-12", "assay": "LPS-induced cytokine release in mice, serum IL-12", "type": "in vivo", "settings": "100 mg/kg pre-treatment; serum 4 h post LPS; CD-1 mouse", "method": "as §5, §6"}, "IL-4": {"test_system": "IL-4", "assay": "LPS-induced cytokine release in mice, serum IL-4", "type": "in vivo", "settings": "100 mg/kg pre-treatment; serum 4 h post LPS; CD-1 mouse", "method": "as §5, §6"}, "TNF-alpha": {"test_system": "TNF-alpha", "assay": "LPS-induced cytokine release in mice, serum TNF-alpha", "type": "in vivo", "settings": "100 mg/kg pre-treatment; serum 4 h post LPS; CD-1 mouse", "method": "as §5, §6"}}}
{"smiles": "CC(=O)Oc1ccc2c(=O)c(Oc3ccc(C(=O)O)cc3)coc2c1", "note": "[Compound 276]", "values": [{"measurement": "IFNγ release from PBMCs, % control (24 h)", "setting": "IFNγ release from PBMCs", "result": 100, "unit": "% control"}, {"measurement": "IL-17 release from PBMCs, % control (48 h)", "setting": "IL-17 release from PBMCs; 2.5 μM", "result": 79, "unit": "% control"}, {"measurement": "IL-17 release from PBMCs, % control (48 h)", "setting": "IL-17 release from PBMCs; 5 μM", "result": 46, "unit": "% control"}, {"measurement": "IL-17 release from PBMCs, % control (48 h)", "setting": "IL-17 release from PBMCs; 10 μM", "result": 57, "unit": "% control"}]}
{"smiles": "COC(=O)c1ccc(Oc2coc3cc(O)ccc3c2=O)cc1", "note": "[Compound 333, methyl 4-[(7-hydroxy-4-oxo-4H-chromen-3-yl)oxy]benzoate]", "values": [{"measurement": "IL-6 release from THP 1 cells, % control", "setting": "[1]; 10 μM", "result": 48, "unit": "% control"}, {"measurement": "IL-6 release from THP 1 cells, % control", "setting": "[1]; 40 μM", "result": 43, "unit": "% control"}, {"measurement": "IL-6 release from THP 1 cells, % control", "setting": "[1]; 100 μM", "result": 35, "unit": "% control"}, {"measurement": "IL-1β release from THP 1 cells, % control at 10 μM", "setting": "[2]", "result": 49, "unit": "% control"}, {"measurement": "IL-23 release from THP 1 cells, % control at 10 μM", "setting": "[3]", "result": 68, "unit": "% control"}, {"measurement": "IL-6 release from PBMCs (% control)", "setting": "IL-6 release from PBMCs; 2.5 μM", "result": 121, "unit": "% control"}, {"measurement": "IL-6 release from PBMCs (% control)", "setting": "IL-6 release from PBMCs; 5 μM", "result": 158, "unit": "% control"}, {"measurement": "IL-6 release from PBMCs (% control)", "setting": "IL-6 release from PBMCs; 10 μM", "result": 176, "unit": "% control"}, {"measurement": "IL-6 release from PBMCs (% control)", "setting": "IL-6 release from PBMCs; 20 μM", "result": 68, "unit": "% control"}, {"measurement": "IL-1β release from PBMCs (% control)", "setting": "IL-1β release from PBMCs; 2.5 μM", "result": 105, "unit": "% control"}, {"measurement": "IL-1β release from PBMCs (% control)", "setting": "IL-1β release from PBMCs; 5 μM", "result": 91, "unit": "% control"}, {"measurement": "IL-1β release from PBMCs (% control)", "setting": "IL-1β release from PBMCs; 10 μM", "result": 58, "unit": "% control"}, {"measurement": "IL-1β release from PBMCs (% control)", "setting": "IL-1β release from PBMCs; 20 μM", "result": 45, "unit": "% control"}, {"measurement": "IFNγ release from PBMCs, % control (24 h)", "setting": "IFNγ release from PBMCs", "result": 43, "unit": "% control"}, {"measurement": "IL-17 release from PBMCs, % control (48 h)", "setting": "IL-17 release from PBMCs; 2.5 μM", "result": 93, "unit": "% control"}, {"measurement": "IL-17 release from PBMCs, % control (48 h)", "setting": "IL-17 release from PBMCs; 5 μM", "result": 80, "unit": "% control"}, {"measurement": "IL-17 release from PBMCs, % control (48 h)", "setting": "IL-17 release from PBMCs; 10 μM", "result": 41, "unit": "% control"}, {"measurement": "IC50", "setting": "IL-6 mRNA [4]", "result": 2.51, "unit": "µM"}, {"measurement": "IL-12 p40 mRNA stability assay (% inhibition)", "setting": "IL-12 p40 mRNA", "result": 72, "unit": "% inhibition"}, {"measurement": "IL-23 p19 mRNA stability assay (% inhibition)", "setting": "IL-23 p19 mRNA", "result": 76, "unit": "% inhibition"}, {"measurement": "IL-6 mRNA analysis, % ctrl", "setting": "IL-6 mRNA [5]", "result": 94, "unit": "% ctrl"}, {"measurement": "Effect on LPS-induced increase in serum IFN-gamma level", "setting": "IFN-gamma", "result": "significantly blocked"}, {"measurement": "Effect on serum IL-12", "setting": "IL-12", "result": "trend of effect"}, {"measurement": "Effect on serum IL-4", "setting": "IL-4", "result": "trend of effect"}, {"measurement": "Effect on serum TNF-alpha", "setting": "TNF-alpha", "result": "trend of effect"}]}
